Test results reported in ChEMBL document CHEMBL5375988, “AcGlcAs: A Novel P53-Targeting Arsenical with Potent Cellular Uptake and Cancer Cell Selectivity” (J Med Chem, 2023).
Calls of active or inactive are those of the source. The calls are words filed in the database; no cut-off is given here. Peptide text beside a SMILES is read from it. * marks the point of attachment. Cbz = O=C(OCc1ccccc1)*; CH2F = FC*

Legend:
[1] = tested on: GTPase KRas (Homo sapiens), P01116 [G12C]; assay: Binding affinity to KRAS-G12C mutant (unknown origin) with exposed Cys12 assessed as increase in melting temperature at 1:15 ratio in HEPES at pH 7.5 by DSF analysis
[2] = Plasma stability in human assessed as half life at […] measured upto 120 mins by LC-MS analysis; format: ADME, cell-free
[3] = Plasma stability in monkey assessed as half life at […] measured upto 120 mins by LC-MS analysis; format: ADME, cell-free, Macaca mulatta; details: rhesus monkey
[4] = Plasma stability in mouse assessed as half life at […] measured upto 120 mins by LC-MS analysis; format: ADME, cell-free
[5] = tested on: Cellular tumor antigen p53 (Homo sapiens), P04637 [V272M]; assay: Restoration of p53-V272M mutant transcriptional activity on PUMA promoter in human NCI-H1299 cells at 22 uM measured after 24 hrs by firefly/renilla based luciferase reporter assay; format: cell-based; details: filed as activator
NB-4 [6] = assay: Antiproliferative activity against human NB4 cells expressing PML/RARalpha assessed as cell growth inhibition measured after 48 hrs by CCK-8 assay; format: functional, cell-based
[7] = molecular target: T1, PML-RARalpha (Homo sapiens) (UniProt P10276+P29590); assay: Induction of Flag-tagged PML/RARalpha (unknown origin) degradation overexpressed in HEK293T cells at 7.2 to 36 uM incubated for 16 hrs by Western blot analysis; format: cell-based; details: dose 7.2-36 µM
[8] = tested on: Cellular tumor antigen p53 (Homo sapiens), P04637 [V272M]; assay: Restoration of p53-V272M mutant transcriptional activity on CDKN1A promoter in human NCI-H1299 cells at 22 uM measured after 24 hrs by firefly/renilla based luciferase reporter assay; format: cell-based; details: filed as activator
[9] = tested on: Cellular tumor antigen p53 (Homo sapiens), P04637 [V272M]; assay: Thermostabilization of recombinant p53 V272M mutant (unknown origin) […] assessed as increase in melting temperature at 1:15 ratio in HEPES at pH 7.5 by DSF analysis
[10] = molecular target: Replicase polyprotein 1ab (Severe acute respiratory syndrome coronavirus 2) (UniProt P0DTD1); assay: Binding affinity to SARS-CoV-2 MPro with exposed Cys145 assessed as increase in melting temperature at 1:15 ratio in HEPES at pH 7.5 by DSF analysis
NB-4 [11] = assay: Induction of apoptosis in human NB4 cells assessed as necrotic cells at 3 uM preincubated for 1 hrs followed by replacement with fresh culture medium and measured after 24 hrs by Annexin V-FITC/7AAD staining based flow cytometry assay (reference value: 0.10%); format: functional
NB-4 [12] = assay: Induction of apoptosis in human NB4 cells assessed as early apoptotic cells at 9 uM preincubated for 1 hrs followed by replacement with fresh culture medium and measured after 24 hrs by Annexin V-FITC/7AAD staining based flow cytometry assay (reference value: 1.93%); format: functional
NB-4 [13] = assay: Induction of apoptosis in human NB4 cells assessed as necrotic cells at 27 uM preincubated for 1 hrs followed by replacement with fresh culture medium and measured after 24 hrs by Annexin V-FITC/7AAD staining based flow cytometry assay (reference value: 0.10%); format: functional
[14] = molecular target: T1, PML-RARalpha (Homo sapiens); assay: Induction of PML/RARalpha degradation in human NB4 cells assessed as residual protein level at 9 uM incubated for 1 hrs followed by replacement with fresh culture medium and measured after 16 hrs by Western blot analysis (reference value: 1); format: cell-based
U-937 [15] = assay: Cytotoxicity against p53 null human U-937 cells harboring p53 V272M mutant incubated for 48 hrs by CCK-8 assay; format: functional, cell-based; details: U-937, 48 h
[16] = tested on: Cellular tumor antigen p53 (Homo sapiens), P04637 [V272M]; assay: Rescue of p53-V272M mutant transcriptional activity on PUMA promoter in human NCI-H1299 cells assessed as fold change in transcriptional activity at 10 uM pretreated for 10 mins to1 hr followed by replacement with fresh culture media and measured after 24 hrs by firefly/renilla based luciferase reporter assay; format: cell-based; details: filed as activator, time 10-60 min
NB-4 [17] = assay: Induction of granulocytic differentiation in human NB4 cells assessed as increase in CD11b expression at 9 uM incubated for 1 hrs followed by replacement with fresh culture medium for 48 hrs by flow cytometry analysis (reference value: 1.44%); format: functional
[18] = Half life in iv dosed mouse; format: ADME, organism-based; details: in vivo
[19] = molecular target: T1, PML-RARalpha (Homo sapiens); assay: Induction of PML/RARalpha degradation in human NB4 cells assessed as residual protein level at 1 uM incubated for 1 hrs followed by replacement with fresh culture medium and measured after 16 hrs by Western blot analysis (reference value: 1); format: cell-based
NB-4 [20] = assay: Induction of apoptosis in human NB4 cells assessed as viable cells at 9 uM preincubated for 1 hrs followed by replacement with fresh culture medium and measured after 24 hrs by Annexin V-FITC/7AAD staining based flow cytometry assay (reference value: 94%); format: functional; details: read-out: Activity
[21] = molecular target: T1, PML-RARalpha (Homo sapiens); assay: Induction of PML/RARalpha degradation in human NB4 cells assessed as residual protein level at 3 uM incubated for 1 hrs followed by replacement with fresh culture medium and measured after 16 hrs by Western blot analysis (reference value: 1); format: cell-based
NB-4 [22] = assay: Induction of apoptosis in human NB4 cells assessed as early apoptotic cells at 27 uM preincubated for 1 hrs followed by replacement with fresh culture medium and measured after 24 hrs by Annexin V-FITC/7AAD staining based flow cytometry assay (reference value: 1.93%); format: functional
NB-4 [23] = assay: Induction of granulocytic differentiation in human NB4 cells assessed as CD11b positive cells at 3 uM incubated for 1 hrs followed by replacement with fresh culture medium for 48 hrs by flow cytometry analysis relative to control; format: functional
NB-4 [24] = assay: Induction of granulocytic differentiation in human NB4 cells assessed as increase in CD11b expression at 3 uM incubated for 1 hrs followed by replacement with fresh culture medium for 48 hrs by flow cytometry analysis (reference value: 1.44%); format: functional
NB-4 [25] = assay: Induction of apoptosis in human NB4 cells assessed as necrotic cells at 9 uM preincubated for 1 hrs followed by replacement with fresh culture medium and measured after 24 hrs by Annexin V-FITC/7AAD staining based flow cytometry assay (reference value: 0.10%); format: functional
[26] = molecular target: T1, PML-RARalpha (Homo sapiens); assay: Induction of PML/RARalpha degradation in human NB4 cells assessed as residual protein level at 0.1 uM incubated for 1 hrs followed by replacement with fresh culture medium and measured after 16 hrs by Western blot analysis (reference value: 1); format: cell-based
NB-4 [27] = assay: Induction of apoptosis in human NB4 cells assessed as late apoptotic cells at 3 uM preincubated for 1 hrs followed by replacement with fresh culture medium and measured after 24 hrs by Annexin V-FITC/7AAD staining based flow cytometry assay (reference value: 3.92%); format: functional
[28] = molecular target: T1, PML-RARalpha (Homo sapiens); assay: Induction of PML/RARalpha degradation in human NB4 cells assessed as residual protein level at 0.3 uM incubated for 1 hrs followed by replacement with fresh culture medium and measured after 16 hrs by Western blot analysis (reference value: 1); format: cell-based
U-937 [29] = assay: Cytotoxicity against p53 null human U-937 cells harboring empty vector incubated for 48 hrs by CCK-8 assay; format: functional, cell-based; details: U-937, 48 h
[30] = Half life in iv dosed rat; format: ADME, organism-based; details: in vivo
NB-4 [31] = assay: Induction of apoptosis in human NB4 cells assessed as late apoptotic cells at 27 uM preincubated for 1 hrs followed by replacement with fresh culture medium and measured after 24 hrs by Annexin V-FITC/7AAD staining based flow cytometry assay (reference value: 3.92%); format: functional
[32] = Half life in po dosed human; format: ADME, organism-based; details: in vivo
[33] = Half life in iv dosed human; format: ADME, organism-based; details: in vivo
NB-4 [34] = assay: Induction of apoptosis in human NB4 cells assessed as late apoptotic cells at 9 uM preincubated for 1 hrs followed by replacement with fresh culture medium and measured after 24 hrs by Annexin V-FITC/7AAD staining based flow cytometry assay (reference value: 3.92%); format: functional
NB-4 [35] = assay: Induction of apoptosis in human NB4 cells assessed as viable cells at 27 uM preincubated for 1 hrs followed by replacement with fresh culture medium and measured after 24 hrs by Annexin V-FITC/7AAD staining based flow cytometry assay (reference value: 94%); format: functional; details: read-out: Activity
NB-4 [36] = assay: Induction of granulocytic differentiation in human NB4 cells assessed as CD11b positive cells at 9 uM incubated for 1 hrs followed by replacement with fresh culture medium for 48 hrs by flow cytometry analysis relative to control; format: functional
NB-4 [37] = assay: Induction of apoptosis in human NB4 cells assessed as viable cells at 3 uM preincubated for 1 hrs followed by replacement with fresh culture medium and measured after 24 hrs by Annexin V-FITC/7AAD staining based flow cytometry assay (reference value: 94%); format: functional; details: read-out: Activity
NB-4 [38] = assay: Induction of apoptosis in human NB4 cells assessed as early apoptotic cells at 3 uM preincubated for 1 hrs followed by replacement with fresh culture medium and measured after 24 hrs by Annexin V-FITC/7AAD staining based flow cytometry assay (reference value: 1.93%); format: functional
[39] = Plasma stability in dog assessed as half life at […] measured upto 120 mins by LC-MS analysis; format: ADME, cell-free, Canis lupus familiaris

T1 sequence (P10276 whole entry, looked up): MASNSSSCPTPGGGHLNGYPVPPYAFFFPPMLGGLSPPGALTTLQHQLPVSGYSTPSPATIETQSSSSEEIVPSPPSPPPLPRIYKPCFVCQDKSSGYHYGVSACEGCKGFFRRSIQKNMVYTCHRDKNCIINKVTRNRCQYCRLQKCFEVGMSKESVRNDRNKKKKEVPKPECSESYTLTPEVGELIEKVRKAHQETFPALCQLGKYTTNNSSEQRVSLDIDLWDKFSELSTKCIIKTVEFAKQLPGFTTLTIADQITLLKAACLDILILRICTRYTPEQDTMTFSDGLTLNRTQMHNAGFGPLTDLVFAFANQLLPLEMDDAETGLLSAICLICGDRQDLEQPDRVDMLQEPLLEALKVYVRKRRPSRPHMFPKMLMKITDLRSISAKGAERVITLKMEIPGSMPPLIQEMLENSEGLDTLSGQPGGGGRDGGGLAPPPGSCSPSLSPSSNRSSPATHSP
T1 sequence (P29590 whole entry, looked up): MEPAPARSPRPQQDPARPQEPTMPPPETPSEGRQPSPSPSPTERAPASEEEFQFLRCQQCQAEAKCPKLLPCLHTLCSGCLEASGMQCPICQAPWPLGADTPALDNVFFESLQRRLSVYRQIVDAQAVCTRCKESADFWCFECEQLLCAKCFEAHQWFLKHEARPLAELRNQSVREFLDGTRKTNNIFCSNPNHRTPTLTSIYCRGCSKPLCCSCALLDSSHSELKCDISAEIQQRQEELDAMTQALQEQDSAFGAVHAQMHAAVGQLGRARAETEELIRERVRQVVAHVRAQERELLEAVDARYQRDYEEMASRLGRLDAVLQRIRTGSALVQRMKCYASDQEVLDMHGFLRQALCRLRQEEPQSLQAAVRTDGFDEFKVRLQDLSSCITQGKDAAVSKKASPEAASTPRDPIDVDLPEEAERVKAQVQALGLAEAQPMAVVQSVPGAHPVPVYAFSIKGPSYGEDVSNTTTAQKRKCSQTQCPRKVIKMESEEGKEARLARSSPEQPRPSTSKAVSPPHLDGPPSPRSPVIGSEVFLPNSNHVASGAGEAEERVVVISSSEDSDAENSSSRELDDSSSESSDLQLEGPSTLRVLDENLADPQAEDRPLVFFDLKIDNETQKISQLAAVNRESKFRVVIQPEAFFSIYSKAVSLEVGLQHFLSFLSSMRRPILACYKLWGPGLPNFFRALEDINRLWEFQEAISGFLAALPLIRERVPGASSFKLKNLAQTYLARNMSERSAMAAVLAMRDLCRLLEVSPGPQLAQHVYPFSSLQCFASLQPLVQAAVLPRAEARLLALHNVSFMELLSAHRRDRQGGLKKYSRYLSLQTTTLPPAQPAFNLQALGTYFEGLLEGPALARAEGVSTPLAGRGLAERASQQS
Chain of GTPase KRas (Homo sapiens), P01116 [G12C] (P01116 whole entry G12C): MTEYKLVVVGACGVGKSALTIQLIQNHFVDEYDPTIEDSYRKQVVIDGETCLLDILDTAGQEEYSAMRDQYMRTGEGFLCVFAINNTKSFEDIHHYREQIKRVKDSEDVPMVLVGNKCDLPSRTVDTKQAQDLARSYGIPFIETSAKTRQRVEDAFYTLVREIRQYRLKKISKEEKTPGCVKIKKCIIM

SMILES: C=CC(=O)N1CCN(c2ncnc3c(F)c(-c4c(O)cccc4F)c(Cl)cc23)CC1
- Activity [1]: Active

SMILES: CCN(CC)CCOC(=O)c1ccc(N)cc1 [PROCAINE]
- half-life [2]: 1.4 min
- half-life [3]: 4.5 min
- half-life [4]: 9.83 min

SMILES: S=[As](=S)S[As](=S)=S
- Activity [5]: Active
- IC50 (NB-4 [6]; nb-4): 1200 nM
- Activity [7]: Active
- Activity [8]: Active

SMILES: S1[As]2S[As]3S[As]2S[As]13
- Activity [9]: inactive

SMILES: COC(=O)C[C@H](NC(=O)[C@H](C)NC(=O)[C@@H](NC(=O)OCc1ccccc1)C(C)C)C(=O)CF (Cbz-Val-Ala-Asp(OMe)-CH2F)
- Activity [10]: Active

SMILES: O=[As][As+](=O)[O-] (stereo not given) [ARSENIC TRIOXIDE]
- Activity (NB-4 [11]): 0.23%
- Activity (NB-4 [12]): 2.83%
- Activity (NB-4 [13]): 0.21%
- Activity [14]: 0.41
- IC50 (U-937 [15]): 1070 nM
- fold change (FC) [16]: 2.2
- IC50 (NB-4 [6]; Homo sapiens, NB-4, 48 h): 940 nM
- Activity (NB-4 [17]): 1.93%
- half-life [18]: ~258 min
- Activity [19]: 0.57
- viability at 9 µM (NB-4 [20]): 93.6%
- Activity [21]: 0.49
- Activity (NB-4 [22]): 2.88%
- Activity (NB-4 [23]): 1.7%
- Activity (NB-4 [24]): 1.65%
- Activity (NB-4 [25]): 0.17%
- Activity [26]: 0.81
- Activity (NB-4 [27]): 3.48%
- Activity [28]: 0.6
- IC50 (U-937 [29]): > 2000 nM
- half-life [30]: ~222 min
- Activity (NB-4 [31]): 3.59%
- half-life [32]: 360 min
- half-life [33]: 60 min
- Activity (NB-4 [34]): 3.42%
- viability at 27 µM (NB-4 [35]): 93.3%
- Activity (NB-4 [36]): 2%
- viability at 3 µM (NB-4 [37]): 93.8%
- Activity (NB-4 [38]): 2.54%

SMILES: CC(=O)Oc1ccc(C(c2ccc(OC(C)=O)cc2)c2ccccn2)cc1 [BISACODYL]
- half-life [39]: 2.06 min
